Earlier results, collected in patent publication US20150258078A1 (priority 2014, published 2015).
Where two headings read alike, the source gives them in different places.

Experiments:
[1] = tested on: patients with elevated cholesterol and triglycerides; settings: multiple clinical trials; daily intakes 600 to 1200 mg/day
[2] = tested on: male inbred BHE (IN-BHE) rats; settings: after the injection of 300 µg
[3] = tested on: type 2 diabetic and nondiabetic subjects; settings: 61.4 micromol/day for 28 days; for VLDL, mean of absolute differences between 0 and 28 day treatment +/- S.E.M. / triacylglycerol, mean of absolute differences between 0 and 28 day treatment +/- S.E.M.: plasma

Molecule	HDL cholesterol increased [1]	total cholesterol decreased [1]	triglycerides decreased [1]	plasma levels of lactate and pyruvate [2]	VLDL, mean of absolute differences between 0 and 28 day treatment +/- S.E.M. ([3]; diabetic group)	triacylglycerol, mean of absolute differences between 0 and 28 day treatment +/- S.E.M. ([3]; diabetic group)	cholesterol, glucose and insulin ([3]; diabetic or nondiabetic subjects)	VLDL, mean of absolute differences between 0 and 28 day treatment +/- S.E.M. ([3]; nondiabetic group)	triacylglycerol, mean of absolute differences between 0 and 28 day treatment +/- S.E.M. ([3]; nondiabetic group)
Pantethine	9%	12%	18%						
O=C(O)CCCC[C@@H]1SC[C@@H]2NC(=O)N[C@@H]21 [Biotin]				fell	−0.11+/−0.04	−0.55+/−0.2	no significant effects	−0.18+/−0.07	−0.92+/−0.36
